The source of these data is patent US12448388B2, “PRMT5 inhibitors and uses thereof” (Gilead Sciences, Inc., priority 2023, dated 2025).

Series [1] is described as follows: PK data (IV/PO) in Beagle dog. The settings on record: in vivo; for clearance: read-out: Observed CL (converted); for bioavailability: PO 0.5 mg/Kg; for Vd: read-out: Vss.
Series [2] has as its system Calu-6 (lung, adenocarcinoma; MTAP-WT). Description: In vitro cell viability assay (CellTiter-Glo, 9 days), Calu-6. The series is classed as cell-based. The following applies: Homo sapiens, Calu-6, 216 h, 9-day treatment. The protocol: (§1) Some Compounds of the Disclosure were tested in Calu-6 (Vendor: ATCC; Cat #HTB-56; Description: lung, adenocarcinoma), LU99 (Vendor: JCRB; Cat #JCRB0080; Description: lung, giant cell carcinoma), SW780 (Vendor: ATCC; Cat #CRL-2169; Description: bladder, urothelial carcinoma), and BxPC-3 (Vendor: ATCC; Cat #CRL-1687; Description: pancreas, adenocarcinoma) cellular viability assays according to the general protocol. Seeded cells into 96-well plate and incubated overnight. Seeded an additional 10 wells per cell line in an additional 96-well plate for assessing Time Zero luminescence and incubated overnight. To treatment plates, added compounds into each well using Tecan D300e dispenser (nine three-fold dilutions starting at […]) and incubated for 9 days. Time Zero (no compound treatment, luminescence assessed on day 1) and 9-day treatment (luminescence assessed on day 10) plates were assessed using the same CellTiter-Glo® substrate protocol. Thawed CellTiter-Glo® Buffer and lyophilized CellTiter-Glo® substrate and equilibrated to room temperature prior to use. Transferred 100 ml CellTiter-Glo® Buffer into amber bottle containing CellTiter-Glo® substrate to reconstitute the lyophilized enzyme/substrate mixture. For Time Zero and 9-day treatment plates, removed all plating media. Added 100 μl fresh media/well. Added 100 μl CellTiter-Glo® Reagent per well. Mixed contents for 10 min on an orbital shaker to lyse cells. Recorded luminescence with Perkin Elmer Envision 2105 machine. Analyzed the data with GraphPad software.

Series [3] is described as follows: Hepatocyte stability assay, rat. In kind it is in vitro ADME. The following applies: Sprague-Dawley Rat. The protocol:
(§2) BioreclamationIVT (Baltimore, MD) provided the cryopreserved hepatocytes, hepatocyte thawing (HT) medium, and Krebs-Henseleit buffer (KHB) medium. The stock solution concentration was 1 M in DMSO and was then diluted further in acetonitrile/water (1:1 v/v). All other chemicals were purchased from Sigma-Aldrich (St. Louis, MO) or Thermo Fisher Scientific (Waltham, MA).
(§3) The quench solution used to stop reactions in the hepatocyte incubations was comprised of 100% (v/v) acetonitrile. Internal Standard/Quench (IS/Q) solution used to stop reactions with the positive control also contained 200 nM Labetalol.
(§4) Metabolic Stability in Cryopreserved Hepatocytes: Test compounds, or the positive control metabolic substrate, was incubated in suspensions of cryopreserved hepatocytes at a final concentration of 1 μM. Vials containing cryopreserved hepatocytes were removed from liquid nitrogen and immediately immersed in a 37° C. water bath. The vials were swirled gently until the contents had thawed. They were then immediately emptied into 48 mL of pre-warmed thawing medium in a 50 mL conical tube. Cells remaining in the vial were re-suspended with 1.0 mL of pre-warmed thawing medium and added to the conical tube. The tube was capped and then gently inverted several times to re-suspend the hepatocytes. The cell suspension was centrifuged at 500×g for 10 minutes at room temperature and the supernatant discarded. The cell pellet was loosened by gently swirling the centrifuge tube. Non-supplemented KHB medium was added to obtain the appropriate target cell density. The viabilities of all cell preparations were ≥85%, assessed by Trypan blue dye exclusion.
(§5) For incubations, aliquots of hepatocyte suspension (250 μL containing a cell concentration of 2×10^6 cells/mL) were added to 250 μL of 2 μM substrate (test compound or positive control) in supplemented KHB in duplicate wells in a 24-well plate. Final concentration in the incubations were 1×10^6 cells/mL and 1 μM substrate. A cell-free control incubation (KHB only) was also included. The incubations were carried out with gentle shaking in a 37° C. incubator under a humid atmosphere of 95% air/5% CO2 (v/v). Aliquots (100 μL) were removed after 0, 1, 3, and 6 hours and added to 200 μL quenching solution. The samples were then placed on a shaker for 10 min followed by centrifugation at 3000×g for 20 min. The supernatant was transferred to a new plate and diluted with 100 μL of water to reduce the organic content and then placed on a shaker for 10 mins. Samples were injected and analyzed with methods described below.
(§6) Liquid Chromatography: Quantification of positive control and test compound was performed by analyte/internal standard peak area ratios (PAR) measured on a Thermo Scientific™ Q Exactive™ Hybrid Quadrupole-Orbitrap Mass Spectrometer MS/MS with an electrospray interface operating in positive ion mode. The mass spectrometer was coupled to a Dionex Ultimate® 3000 HPLC system. Samples (10 μL aliquots) were injected with a Leap Technologies HTC PAL autosampler. For positive control, the column used was a Thermo Scientific™ Hypersil GOLD™ HPLC column ([…], 50×2.1 mm). Mobile phase A consisted of 95% (v/v) water, 5% (v/v) acetonitrile, and contained 0.1% (v/v) formic acid (FA). Mobile phase B consisted of 95% (v/v) acetonitrile, 5% (v/v) water, and contained 0.1% (v/v) FA. Elution was achieved, at a flow rate of 0.5 mL/min, by a series of linear gradients: initial condition was 5% B at 0 min, isocratic for 20 seconds; then linear gradient to 95% B over 90 seconds, followed by isocratic for 60 seconds at 95% B, and re-equilibrated to initial conditions over 70 seconds.
(§7) Metabolic stabilities of positive control and test compound were determined by measuring the rates of disappearance of the parent with time by determining the % of parent remaining at time t (Ct) {Obach 1997}.
(§8) Data (% of parent remaining) were plotted on a semi-log scale and fitted using an exponential fit: […]

The nature of series [4]: Hepatocyte stability assay, cynomolgus monkey. The series is classed as in vitro ADME. On the procedure: as §2, §3, §4, §5, §6, §7, §8
For series [5], the system named is SW780 (bladder, urothelial carcinoma; MTAP-Deleted). Description: In vitro cell viability assay (CellTiter-Glo, 9 days), SW780. In kind it is cell-based. The settings on record: Homo sapiens, SW780, 216 h, 9-day treatment. The protocol: as §1
For orientation: ATP-based viability assays read luminescence as a measure of living cells.

In series [6] the test system is BxPC-3 (pancreas, adenocarcinoma; MTAP-Deleted). Description: In vitro cell viability assay (CellTiter-Glo, 9 days), BxPC-3. The following applies: Homo sapiens, BXPC-3, 216 h, 9-day treatment. The series is classed as cell-based. The protocol:
as §1

The half-life is how long it takes for the measured level to halve. Usually GI50 stands for the concentration that inhibits growth by half.

“And” between values parts separate entries of the source, which are not always exact repeats. Identical values can stand only once. Like-named read-outs stand apart in the source and are kept apart here. Where only a bound is given, the exact number is not on record here.

Regarding `C[C@H]1CN(C(=O)c2cc3c(cc2F)nc(N)c2cncn23)[C@H]2c3ccc(C(F)(F)F)cc3C[C@H]2O1` (single isomer, unassigned) [Ff-81], the half-life in series [1] (IV 0.5 mg/Kg) is 7.9 h. In addition, in series [1] (IV 0.5 mg/Kg), the clearance was 4.33 mL/min/kg. Moreover, in series [1], the bioavailability turned out to be 134%. Further, the GI50 in series [2] is over 10000 nM; in series [5] it was 25 nM. Besides, the “Predicted Hepatocyte CL” value in series [3] is 18.3 mL/min/kg; in series [4] it was 2.5 mL/min/kg.
For `C[C@@H]1CN(C(=O)c2cc3c(cc2F)nc(N)c2cncn23)[C@H]2c3ccc(OC(F)(F)F)cc3C[C@H]2O1` (single isomer, unassigned) [Ff-183], the 50% growth inhibitory concentration (GI50) in series [2] was determined as 2150 nM; in series [6], 12 nM; in series [5], 19 nM.
`Nc1nc2cnc(C(=O)N3CCC[C@@H]4Oc5cc(C(F)(F)F)cc(F)c5[C@@H]43)cc2n2cncc12` (single isomer, unassigned) [Fg-53] gave a half-life in series [1] (IV 0.25 mg/Kg) of 3.8 h. Further, in series [1] (IV 0.25 mg/Kg), the clearance was 6.33 mL/min/kg. In series [1] (IV 0.25 mg/Kg), the Vd worked out at 1.97 L/kg. Besides, in series [1], the bioavailability came out at 73%. The GI50 in series [2] turned out to be 1260 nM; in series [6] it was 7 nM; in series [5], 9 nM. Besides, the figures for the “Predicted Hepatocyte CL” value in series [3] and in series [4] were 18.7 mL/min/kg and 3 mL/min/kg, respectively.
Turning to `Nc1nc2cnc(C(=O)N3CCC[C@@H]4Oc5cc(OC(F)(F)F)cc(F)c5[C@@H]43)cc2n2cncc12` (single isomer, unassigned) [Fg-55], in series [1] (IV 0.25 mg/Kg), the half-life is 6 h. Further, the clearance in series [1] (IV 0.25 mg/Kg) is 4.33 mL/min/kg. Moreover, the Vd in series [1] (IV 0.25 mg/Kg) worked out at 1.8 L/kg. The GI50 turned out to be 2510 nM in series [2], 11 nM in series [6] and 23 nM in series [5]. Besides, the “Predicted Hepatocyte CL” value in series [3] was 15.5 mL/min/kg; in series [4] it was 4.17 mL/min/kg.
With `Nc1nc2cc(F)c(C(=O)N3CCC[C@@H]4Oc5cc(C(F)(F)F)ccc5[C@@H]43)cc2n2cncc12` [Ff-104, (4-amino-7-fluoroimidazo[1,5-a]quinoxalin-8-yl)((4aS,9bS)-7-(trifluoromethyl)-3,4,4a,9b-tetrahydrobenzofuro[3,2-b]pyridin-1(2H)-yl)methanone], the half-life is 3.9 h in series [1] (IV 0.25 mg/Kg) and 8.7 h in series [1] (IV 0.5 mg/Kg). Also, the results for the clearance in series [1] (IV 0.25 mg/Kg) and in series [1] (IV 0.5 mg/Kg) were 6.5 mL/min/kg and 3.17 mL/min/kg, respectively. In addition, the results for the Vd in series [1] (IV 0.25 mg/Kg) and in series [1] (IV 0.5 mg/Kg) were 1.78 L/kg and 2 L/kg, respectively. Moreover, in series [1], the bioavailability worked out at 68%. Also, the GI50 in series [2] was 2150 nM; in series [5] it was 5 nM. For the same compound, the “Predicted Hepatocyte CL” value is 27.7 mL/min/kg and 20.7 mL/min/kg in series [3]; 4.83 mL/min/kg and 4.67 mL/min/kg in series [4].
Regarding `Nc1nc2cnc(C(=O)N3CCC[C@@H]4Oc5cc(C(F)(F)F)ccc5[C@@H]43)cc2n2cncc12` [Ff-110, (4-aminoimidazo[1,5-a]pyrido[3,4-e]pyrazin-8-yl)((4aS,9bS)-7-(trifluoromethyl)-3,4,4a,9b-tetrahydrobenzofuro[3,2-b]pyridin-1(2H)-yl)methanone], the concentration for 50% growth inhibition (GI50) in series [2] was found to be 1550 nM; in series [6] it was 7 nM; in series [5], 120 nM.
Turning to `Nc1nc2ccc(C(=O)N3CCC[C@@H]4Oc5cc(C(F)(F)F)ccc5[C@@H]43)cc2n2cncc12` [Ff-111, (4-aminoimidazo[1,5-a]quinoxalin-8-yl)((4aS,9bS)-7-(trifluoromethyl)-3,4,4a,9b-tetrahydrobenzofuro[3,2-b]pyridin-1(2H)-yl)methanone], the results for the GI50 in series [2], in series [6] and in series [5] were over 6400 nM, 10 nM and 11 nM, respectively. The “Predicted Hepatocyte CL” value was 27.8 mL/min/kg in series [3] and 4.67 mL/min/kg in series [4].
In the case of `Cc1ncc2c(N)nc3cnc(C(=O)N4CCC[C@@H]5Oc6cc(OC(F)(F)F)ccc6[C@@H]54)cc3n12` [Ff-340, (4-amino-1-methylimidazo[1,5-a]pyrido[3,4-e]pyrazin-8-yl)((4aS,9bS)-7-(trifluoromethoxy)-3,4,4a,9b-tetrahydrobenzofuro[3,2-b]pyridin-1(2H)-yl)methanone], the results for the GI50 in series [2], in series [6] and in series [5] were 2950 nM, 23 nM and 23 nM, respectively. In addition, the “Predicted Hepatocyte CL” value is 19.8 mL/min/kg in series [3] and 3.3 mL/min/kg in series [4].
Regarding `Nc1nc2cnc(C(=O)N3CCC[C@@H]4Oc5cc(OC(F)(F)F)ccc5[C@@H]43)cc2n2cncc12` [Ff-341, (4-aminoimidazo[1,5-a]pyrido[3,4-e]pyrazin-8-yl)((4aS,9bS)-7-(trifluoromethoxy)-3,4,4a,9b-tetrahydrobenzofuro[3,2-b]pyridin-1(2H)-yl)methanone], the GI50 turned out to be 2440 nM in series [2], 14 nM in series [6] and 10 nM in series [5]. Besides, the “Predicted Hepatocyte CL” value in series [3] was 16 mL/min/kg; in series [4], 5.67 mL/min/kg.
Turning to `Cc1ncn2c1c(N)nc1cnc(C(=O)N3CCC[C@@H]4Oc5cc(C(F)(F)F)ccc5[C@@H]43)cc12` [Ff-499, (4-amino-3-methylimidazo[1,5-a]pyrido[3,4-e]pyrazin-8-yl)((4aS,9bS)-7-(trifluoromethyl)-3,4,4a,9b-tetrahydrobenzofuro[3,2-b]pyridin-1(2H)-yl)methanone], the entries for the “Predicted Hepatocyte CL” value in series [3] and in series [4] were 37.2 mL/min/kg and 15.3 mL/min/kg, respectively.
Turning to `Nc1nc2cnc(C(=O)N3CC4(CC4)C[C@@H]4Oc5cc(C(F)(F)F)ccc5[C@@H]43)cc2n2cncc12` [Ff-648, (4-aminoimidazo[1,5-a]pyrido[3,4-e]pyrazin-8-yl)((4aS,9bS)-7-(trifluoromethyl)-4a,9b-dihydro-2H-spiro[benzofuro[3,2-b]pyridine-3,1′-cyclopropan]-1(4H)-yl)methanone], the figures for the 50% growth inhibitory concentration (GI50) in series [2], in series [6] and in series [5] were 1660 nM, 8 nM and 12 nM, respectively.
